Assays:
Format in all cases: cell-based
Glucocorticoid Receptor = biological target: T1, Glucocorticoid Receptor (Homo sapiens, UniProt P04150); assay: GR (ARE)2-Luc luciferase reporter gene assay; settings: HQ extract 0 ×10^−6 g/mL (hormone only)
T1 construct: expressed in transfected cells
T1 sequence (P04150 1-777): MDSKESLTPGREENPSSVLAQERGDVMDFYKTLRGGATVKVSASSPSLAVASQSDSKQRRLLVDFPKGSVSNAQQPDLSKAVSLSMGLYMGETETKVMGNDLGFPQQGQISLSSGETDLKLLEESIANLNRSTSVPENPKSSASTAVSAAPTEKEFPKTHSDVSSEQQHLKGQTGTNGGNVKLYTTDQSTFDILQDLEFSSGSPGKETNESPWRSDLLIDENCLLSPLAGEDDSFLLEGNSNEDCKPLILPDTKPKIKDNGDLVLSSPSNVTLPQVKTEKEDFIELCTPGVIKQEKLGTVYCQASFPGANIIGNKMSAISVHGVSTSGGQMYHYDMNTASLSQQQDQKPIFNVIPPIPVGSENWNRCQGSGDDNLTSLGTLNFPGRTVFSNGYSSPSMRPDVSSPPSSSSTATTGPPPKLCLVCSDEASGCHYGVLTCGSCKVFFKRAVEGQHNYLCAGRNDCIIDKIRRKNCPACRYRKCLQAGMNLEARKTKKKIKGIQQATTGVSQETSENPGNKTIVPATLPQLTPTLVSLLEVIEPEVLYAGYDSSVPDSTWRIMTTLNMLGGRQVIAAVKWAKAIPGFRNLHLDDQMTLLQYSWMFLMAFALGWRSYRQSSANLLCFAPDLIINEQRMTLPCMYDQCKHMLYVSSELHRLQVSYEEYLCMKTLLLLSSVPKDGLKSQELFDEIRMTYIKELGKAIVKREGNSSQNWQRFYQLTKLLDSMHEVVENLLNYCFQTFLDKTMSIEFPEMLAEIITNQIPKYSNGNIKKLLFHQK
Procedure: (§1) The capacity of HQ extract to activate other steroid receptors, namely AR, PR, GR, ERα and ERβ was examined. […] The (ARE)2-Luc plasmid consist of two repeats of Androgen Response Element (ARE) cloned upstream of the Luciferase Reporter gene in a pGL3-Basic vector (Promega).
(§2) AR, PR, GR and ERα and […] were determined by comparing luciferase activity in test cells with control cells exposed to vehicle (i.e., ethanol or methanol) only, analogous to the determination of PPAR activity as described in the previous examples.

[1] = biological target: T2, human estrogen receptor ERβ (Homo sapiens, UniProt Q92731); assay: ERβ MMTV-ERE-LUC reporter gene assay in HeLa cells
T2 construct: expressed in transfected cells; host or cells: HeLa
T2 sequence (Q92731 whole entry): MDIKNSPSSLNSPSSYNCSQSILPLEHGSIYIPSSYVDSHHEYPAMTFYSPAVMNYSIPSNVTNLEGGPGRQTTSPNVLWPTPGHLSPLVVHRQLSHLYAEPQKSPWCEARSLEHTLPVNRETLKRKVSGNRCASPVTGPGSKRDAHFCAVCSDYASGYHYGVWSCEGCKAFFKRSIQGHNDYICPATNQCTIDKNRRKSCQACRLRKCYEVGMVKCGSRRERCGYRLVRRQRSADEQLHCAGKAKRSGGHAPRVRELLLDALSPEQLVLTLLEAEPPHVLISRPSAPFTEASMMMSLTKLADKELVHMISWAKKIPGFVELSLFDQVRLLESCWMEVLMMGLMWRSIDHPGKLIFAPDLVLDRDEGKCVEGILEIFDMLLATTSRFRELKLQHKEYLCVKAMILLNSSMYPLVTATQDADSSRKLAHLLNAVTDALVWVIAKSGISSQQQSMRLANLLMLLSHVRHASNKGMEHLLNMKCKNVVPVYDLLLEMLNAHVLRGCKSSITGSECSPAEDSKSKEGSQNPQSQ
Procedure: (§3) ERα and ERβ activity were assayed using plasmids encoding either ERα or ERβ co-transfected with the ERE-LUC reporter gene. To assay estrogen receptor agonist activity, HeLa cells were transiently co-transfected with two plasmids (Tcherepanova, et al., 2000) using Lipofectamine. The first plasmid comprised DNA encoding human estrogen receptor (either ERα or ERβ), and the second plasmid comprised an estrogen-driven reporter system comprising: a luciferase reporter gene (LUC) whose transcription is under the control of upstream regulatory elements comprising 4 copies of the vitellogenin estrogen response element (ERE) cloned into the Mouse Mammary Tumor Virus (MMTV) promoter (the full name of the reporter system being ‘MMTV-ERE-LUC’).
as §2

[2] = biological target: T3, human estrogen receptor ERα (Homo sapiens, UniProt P03372); assay: ERα MMTV-ERE-LUC reporter gene assay in HeLa cells
T3 construct: expressed in transfected cells; host or cells: HeLa
T3 sequence (P03372 1-595): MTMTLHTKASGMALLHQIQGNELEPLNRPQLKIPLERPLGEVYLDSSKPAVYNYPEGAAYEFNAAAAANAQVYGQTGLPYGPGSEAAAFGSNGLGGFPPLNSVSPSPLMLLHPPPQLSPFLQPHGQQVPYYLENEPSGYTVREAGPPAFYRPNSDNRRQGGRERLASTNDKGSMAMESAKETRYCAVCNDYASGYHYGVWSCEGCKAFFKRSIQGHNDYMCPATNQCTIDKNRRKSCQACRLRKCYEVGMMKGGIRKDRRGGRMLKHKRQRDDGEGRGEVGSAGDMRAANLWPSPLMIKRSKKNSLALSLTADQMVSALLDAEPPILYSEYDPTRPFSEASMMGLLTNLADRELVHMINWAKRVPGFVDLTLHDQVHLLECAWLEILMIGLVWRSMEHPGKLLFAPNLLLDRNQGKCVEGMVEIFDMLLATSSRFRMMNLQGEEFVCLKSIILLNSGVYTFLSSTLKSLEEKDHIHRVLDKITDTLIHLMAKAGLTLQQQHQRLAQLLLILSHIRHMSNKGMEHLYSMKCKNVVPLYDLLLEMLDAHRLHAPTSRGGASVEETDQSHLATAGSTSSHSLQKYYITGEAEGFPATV
Procedure: as §3, §2

PPARγ = biological target: T4, PPARγ (Homo sapiens, UniProt P37231); assay: Chimeric Gal4DBD-PPARγLBD receptor / UASg-luciferase reporter gene assay in HeLa cells
T4 construct: expressed in transfected cells; host or cells: HeLa
T4 sequence (P37231 238-503 limits assumed): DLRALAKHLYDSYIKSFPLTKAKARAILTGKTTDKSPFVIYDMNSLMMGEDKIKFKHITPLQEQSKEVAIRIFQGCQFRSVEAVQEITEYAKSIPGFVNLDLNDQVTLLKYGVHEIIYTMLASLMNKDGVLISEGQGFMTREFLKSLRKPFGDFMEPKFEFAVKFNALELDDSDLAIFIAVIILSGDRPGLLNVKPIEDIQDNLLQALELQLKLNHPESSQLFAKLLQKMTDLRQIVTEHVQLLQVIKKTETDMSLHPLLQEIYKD
Description: (§4) In an example of such a reporter gene assay, a plasmid containing chimeric Ga14DBD-PPARLBD receptor cDNA was constructed by excising the ligand binding domain (LBD) of full length PPARγ and PPARα and ligating the resulting fragments in frame to the Ga14-DNA binding domain (DBD) of Saccharomyces cerevisiae in a pM vector (Clontech). Specifically, to construct Ga14DBD-PPARγLBD plasmid, pSG5 expression vector (Stratagene) containing full length PPARγ was excised with Rsa I and blunt ligated to Hind III site of pMGa14DBD expression plasmid (Clontech). To construct Ga14DBD-PPARαLBD plasmid, pSG5 expression vector (Stratagene) containing full length PPARα was excised with BstU I and BamH I and blunt-end ligated in frame to BamH I site of pMGa14DBD expression plasmid (Clontech). […] Ga14 DBD binds very strongly to the exogenous UASg promoter, thereby giving rise to a sensitive and specific assay. To measure PPARγ and PPARα agonist activity, HeLa cells were grown in 24-well microtiter plates and then transiently co-transfected with the two plasmids (chimeric PPAR receptor and UASg reporter gene) using Lipofectamine (Invitrogen). […] Concurrently, cells exposed to known PPAR ligands served as positive controls. Replicate wells, exposed to the vehicle solvent (i.e., ethanol or methanol) in which herbal extracts were dissolved, were used as negative controls. After the 40 hr incubation period, cells were rinsed with phosphate buffered saline (PBS), lysis buffer was added, and cell lysates were collected for measurement of luciferase activity using a luminometer. […] All data points are in triplicate. The data points represent the mean of triplicate wells. Luciferase activity in such an assay accurately reflects the activity of any ligands on PPARγ or PPARα.

Progesterone Receptor = biological target: T5, Progesterone Receptor (Homo sapiens, UniProt P06401); assay: PR (ARE)2-Luc luciferase reporter gene assay; settings: with progesterone 10×10^−6M
T5 construct: expressed in transfected cells; host or cells: HeLa (named for the formononetin and daidzein experiments)
T5 sequence (P06401 1-933): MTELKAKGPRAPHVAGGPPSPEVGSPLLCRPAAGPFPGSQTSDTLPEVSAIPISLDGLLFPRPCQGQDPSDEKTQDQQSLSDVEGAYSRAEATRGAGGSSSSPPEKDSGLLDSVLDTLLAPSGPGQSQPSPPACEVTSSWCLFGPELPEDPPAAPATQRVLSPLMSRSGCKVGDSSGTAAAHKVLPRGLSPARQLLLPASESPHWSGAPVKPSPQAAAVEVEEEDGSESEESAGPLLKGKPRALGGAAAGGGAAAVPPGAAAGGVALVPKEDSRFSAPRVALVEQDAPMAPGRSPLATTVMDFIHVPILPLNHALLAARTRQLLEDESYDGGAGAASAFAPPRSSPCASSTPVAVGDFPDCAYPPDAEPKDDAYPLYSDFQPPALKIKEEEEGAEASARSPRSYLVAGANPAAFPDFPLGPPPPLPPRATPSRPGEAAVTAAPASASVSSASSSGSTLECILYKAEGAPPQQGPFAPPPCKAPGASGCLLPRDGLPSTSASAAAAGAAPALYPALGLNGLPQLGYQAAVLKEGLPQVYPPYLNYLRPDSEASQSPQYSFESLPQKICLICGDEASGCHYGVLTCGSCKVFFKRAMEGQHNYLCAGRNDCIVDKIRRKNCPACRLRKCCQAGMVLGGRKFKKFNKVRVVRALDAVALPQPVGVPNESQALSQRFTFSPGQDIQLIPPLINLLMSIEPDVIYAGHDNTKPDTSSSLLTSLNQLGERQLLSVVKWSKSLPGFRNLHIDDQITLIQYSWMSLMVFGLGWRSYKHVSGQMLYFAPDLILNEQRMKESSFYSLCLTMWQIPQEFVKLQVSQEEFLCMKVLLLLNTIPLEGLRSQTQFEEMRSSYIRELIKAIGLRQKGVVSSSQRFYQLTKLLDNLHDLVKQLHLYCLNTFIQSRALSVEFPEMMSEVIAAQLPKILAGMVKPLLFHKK
Procedure: as §1, §2

PPARα = biological target: T6, PPARα (Homo sapiens, UniProt Q07869); assay: Chimeric Gal4DBD-PPARαLBD receptor / UASg-luciferase reporter gene assay in HeLa cells
T6 construct: expressed in transfected cells; host or cells: HeLa
T6 sequence (Q07869 239-466 limits assumed): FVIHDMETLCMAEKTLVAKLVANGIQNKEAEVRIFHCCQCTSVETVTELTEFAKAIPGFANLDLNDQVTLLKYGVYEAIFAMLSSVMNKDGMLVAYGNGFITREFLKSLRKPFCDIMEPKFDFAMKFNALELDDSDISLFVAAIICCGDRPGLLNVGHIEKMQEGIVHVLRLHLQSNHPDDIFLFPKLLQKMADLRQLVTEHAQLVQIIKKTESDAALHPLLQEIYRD
Description: as §4

Structure (SMILES) | Luciferase activity (Fold ± SE) Glucocorticoid Receptor/Hydrocortisone (1 × 10^−9 M) (Glucocorticoid Receptor) [Fold] | effect on ERβ activity of estradiol ([1]; 1 to 30×10^−6 g/mL + estradiol 1×10^−9M) | ERβ activity comparable to % maximal activity of Estradiol ([1]; 30×10^−6 g/ml) [%] | ERα activity comparable to % maximal activity of Estradiol ([2]; 30×10^−6 g/ml) | increase of the activity of maximal doses of estradiol on ERα ([2]; with estradiol 1×10^−9M) [fold] | PPARγ activity when added to pioglitazone compared with pioglitazone alone (PPARγ; 3 to 30 ×10^−6 g/mL + pioglitazone 30×10^−6M) | increase of PPARγ activity, up to (PPARγ; Table 8) | increase of the activity of maximal doses of PR agonist (Progesterone Receptor) [fold] | increase of PPARα activity, up to (PPARα; Table 8) [fold] | increase of the activity of maximal doses of PPARα agonist (PPARα; with WY14643 30×10^−6M) [fold]
C[C@]12CCC(=O)C=C1CC[C@@H]1[C@@H]2[C@@H](O)C[C@@]2(C)[C@H]1CC[C@]2(O)C(=O)CO [Hydrocortisone, hydrocortisone] | 11014 ± 285 |  |  |  |  |  |  |  |  | 
COc1ccc(-c2coc3cc(O)ccc3c2=O)cc1 [formononetin, 7-Hydroxy-4′-methoxyisoflavone] |  | did not inhibit or augment the activity of estradiol alone | ~400 | comparable to maximal activity of Estradiol | 3.2 | no different than that observed with pioglitazone alone | up to 6 fold | 1.8 | ≤ 10 | 4.4

— US20050118290A1, “Compositions and method for treatment of steroid/nuclear receptor-mediated diseases” (University of Singapore, priority 2003, published 2005)
